Laboratory results reported in US20250144067A1, “PERSONALIZED STARVATION THERAPY FOR CANCER” (Faeth Therapeutics, Inc., priority 2021, published 2025).
Where a name gives a salt, the structure may show the parent alone.

How the values were obtained:
[1] = test system: NCI-H292 lung cancer cells; assay: FDA drug screening, complete media vs cholesterol-free media without statin (TABLE 1); format: cell-based, human
[2] = test system: NCI-H292 lung cancer cells; assay: FDA drug screening, complete media vs cholesterol-free media with simvastatin (TABLE 2); format: cell-based, human; conditions: for Cholesterol-free media + simvastatin (0.04 μM) / Complete Media: NCI-H292 cells
[3] = NCI-H292 cells, cholesterol-free media without statin
[4] = complete vs cholesterol-free media, greater than 0 enhanced anti-cancer activity, about 0 neutral, below 0 antagonists
[5] = cholesterol-free media with simvastatin 0.04 μM, cell growth value in FDA drug screen
[6] = complete media, cell growth value in FDA drug screen
[7] = complete media minus cholesterol-free media + simvastatin, >0 enhanced anti-cancer activity, about 0 neutral, <0 antagonist
[8] = drug in cholesterol-free media with simvastatin 0.04 μM
[9] = complete media vs cholesterol-free media + simvastatin (0.04 μM), >0 enhanced anti-cancer activity, about 0 neutral, <0 antagonist
[10] = Complete minus Cholesterol-free, greater than 0 enhanced anti-cancer activity, about 0 neutral, below 0 antagonist
[11] = NCI-H292 cells, FDA drug library screen, cholesterol-free media without statin
[12] = NCI-H292 cells, FDA drug library screen, complete media
[13] = FDA drug library screen, cholesterol-free media with simvastatin 0.04 μM
[14] = FDA drug library screen, complete media
[15] = Complete minus Cholesterol-free, >0 enhanced anti-cancer activity, about 0 neutral, <0 antagonist
[16] = NCI-H292 cells, cholesterol-free media without statin, FDA drug library screen
[17] = NCI-H292 cells, complete media, FDA drug library screen
[18] = complete vs cholesterol-free media, >0 enhanced anti-cancer activity, about 0 neutral, <0 antagonist
[19] = NCI-H292 cells in cholesterol-free media without statin
[20] = NCI-H292 cells in complete media
[21] = Complete minus Cholesterol-free, […]
[22] = cholesterol-free media with simvastatin 0.04 μM, FDA drug library screen (TABLE 2)
[23] = complete media, FDA drug library screen (TABLE 2)
[24] = FDA library drug in cholesterol-free media with simvastatin 0.04 μM
[25] = FDA library drug in complete media
[26] = complete vs cholesterol-free media, […]
[27] = complete media vs cholesterol-free media + simvastatin (0.04 μM), […]

Compound: c1ccc2c(c1)Sc1ccccc1N2CC1CN2CCC1CC2 (stereo not shown) [Mequitazine]
- Cholesterol-free [1, 3]: 1.704
- Complete ([1]; NCI-H292 cells, complete media): 1.338
- Difference [1, 4]: −0.37
- Cholesterol-free media + simvastatin (0.04 μM) [2, 5]: 0.8559
- Complete Media [2, 6]: 0.9842
- Difference [2, 7]: 0.13

Compound: CC(C)(C)NC(=O)[C@@H]1C[C@@H]2CCCC[C@@H]2CN1C[C@@H](O)[C@H](Cc1ccccc1)NC(=O)[C@H](CC(N)=O)NC(=O)c1ccc2ccccc2n1 [Saquinavir]
- Cholesterol-free [1, 3]: 1.314
- Complete ([1]; NCI-H292 cells, complete media): 0.9252
- Difference [1, 4]: −0.39
- Cholesterol-free media + simvastatin (0.04 μM) [2, 8]: 0.9867
- Complete Media ([2]; drug in complete media): 0.801
- Difference [2, 9]: −0.19

Compound: CC1CCCC(C)N1CCCC(O)(c1ccccc1)c1ccccn1 (stereo not shown) [Pirmenol (hydrochloride)]
- Difference [1, 10]: −0.15
- Cholesterol-free [1, 11]: 0.8727
- Complete [1, 12]: 0.7238
- Cholesterol-free media + simvastatin (0.04 μM) [2, 13]: 1.664
- Complete Media [2, 14]: 1.547
- Difference [2, 9]: −0.12

Compound: CC(C)[C@H](N)C(=O)OCC(CO)OCn1cnc2c(=O)nc(N)[nH]c21 (stereo partly shown) [Valganciclovir (hydrochloride)]
- Difference [1, 15]: −0.03
- Cholesterol-free [1, 16]: 1.042
- Complete [1, 17]: 1.007
- Cholesterol-free media + simvastatin (0.04 μM) [2, 13]: 0.9599
- Complete Media [2, 14]: 1.178
- Difference [2, 7]: 0.22

Compound: Cc1cccn2c(=O)c(-c3nnn[nH]3)cnc12 [Pemirolast (potassium)]
- Cholesterol-free [1, 16]: 0.8951
- Complete [1, 17]: 1.011
- Difference [1, 18]: 0.12
- Cholesterol-free media + simvastatin (0.04 μM) [2, 13]: 1.053
- Complete Media [2, 14]: 0.9441
- Difference [2, 9]: −0.11

Compound: COc1ccc(CN2C3CC2CN(c2ccc(-c4cc(OCC(C)(C)O)cn5ncc(C#N)c45)cn2)C3)cn1 [Selpercatinib]
- Difference [1, 15]: −0.01
- Cholesterol-free [1, 16]: 0.9224
- Complete [1, 17]: 0.9158
- Cholesterol-free media + simvastatin (0.04 μM) [2, 13]: 1.485
- Complete Media [2, 14]: 1.627
- Difference [2, 7]: 0.14

Compound: CCCCNc1cc(C(=O)O)cc(S(N)(=O)=O)c1Oc1ccccc1 [Bumetanide]
- Difference [1, 15]: 0.04
- Cholesterol-free [1, 16]: 0.6987
- Complete [1, 17]: 0.7406
- Cholesterol-free media + simvastatin (0.04 μM) [2, 5]: 1.046
- Complete Media [2, 6]: 1.138
- Difference [2, 7]: 0.09

Compound: CC#CCC(C)[C@H](O)/C=C/[C@@H]1[C@H]2C/C(=C/CCCC(=O)O)C[C@H]2C[C@H]1O (stereo partly shown) [Iloprost]
- Difference ([1]; Complete minus Cholesterol-free, greater than 0 enhanced anti-cancer activity, about 0 neutral, below 0 antagonists): −0.58
- Cholesterol-free [1, 19]: 1.473
- Complete [1, 20]: 0.8944
- Cholesterol-free media + simvastatin (0.04 μM) [2, 8]: 1.189
- Complete Media ([2]; drug in complete media): 0.9963
- Difference [2, 9]: −0.19

Compound: CC(O)C(=O)O.CCOc1ccc2nc3cc(N)ccc3c(N)c2c1.O [Ethacridine (lactate monohydrate)]
- Difference [1, 21]: −0.05
- Cholesterol-free [1, 16]: 0.2006
- Complete [1, 17]: 0.1519
- Cholesterol-free media + simvastatin (0.04 μM) [2, 22]: 0.1737
- Complete Media [2, 23]: 0.1706
- Difference ([2]; complete media minus cholesterol-free media + simvastatin (0.04 μM), […]): 0.00

Compound: O=C1Nc2ccc(Cl)cc2[C@@](C#CC2CC2)(C(F)(F)F)O1 [Efavirenz]
- Cholesterol-free [1, 3]: 1.108
- Complete ([1]; NCI-H292 cells, complete media): 0.7866
- Difference [1, 4]: −0.32
- Cholesterol-free media + simvastatin (0.04 μM) [2, 5]: 1.215
- Complete Media [2, 6]: 1.301
- Difference [2, 7]: 0.09

Compound: N#Cc1ccc(C(c2ccc(C#N)cc2)n2cncn2)cc1 [Letrozole]
- Cholesterol-free [1, 3]: 1.334
- Complete ([1]; NCI-H292 cells, complete media): 1.012
- Difference [1, 4]: −0.32
- Cholesterol-free media + simvastatin (0.04 μM) [2, 24]: 1.67
- Complete Media [2, 25]: 1.21
- Difference [2, 9]: −0.46

Compound: O=C1CN(/N=C/C=C/c2ccc([N+](=O)[O-])o2)C(=O)N1 [Furagin]
- Difference [1, 15]: −0.23
- Cholesterol-free [1, 3]: 1.216
- Complete ([1]; NCI-H292 cells, complete media): 0.9861
- Cholesterol-free media + simvastatin (0.04 μM) [2, 22]: 1.137
- Complete Media [2, 23]: 1.079
- Difference ([2]; complete media minus cholesterol-free media + simvastatin (0.04 μM), >0 enhanced anti-cancer activity, about 0 neutral, <0 antagonist): −0.06

Compound: CC(C)(C)[C@@H]1NC(=O)O[C@@H]2CCC[C@H]2OC/C=C/C(F)(F)c2nc3ccccc3nc2O[C@@H]2C[C@@H](C(=O)N[C@]3(C(=O)NS(=O)(=O)C4(C)CC4)C[C@H]3C(F)F)N(C2)C1=O [Glecaprevir]
- Difference [1, 15]: −0.04
- Cholesterol-free [1, 16]: 0.8867
- Complete [1, 17]: 0.8478
- Cholesterol-free media + simvastatin (0.04 μM) [2, 5]: 1.021
- Complete Media [2, 6]: 1.126
- Difference [2, 7]: 0.11

Compound: COc1ccc2[n-]c([S+]([O-])Cc3ncc(C)c(OC)c3C)nc2c1.COc1ccc2[n-]c([S+]([O-])Cc3ncc(C)c(OC)c3C)nc2c1.[Mg+2] (stereo not shown) [Esomeprazole magnesium]
- Cholesterol-free [1, 16]: 0.6797
- Difference [1, 26]: 0.50
- Cholesterol-free media + simvastatin (0.04 μM) [2, 13]: 0.8343
- Complete Media [2, 14]: 1.003
- Difference ([2]; complete media minus cholesterol-free media + simvastatin, […]): 0.17

Compound: CC1(C)C(C=C(Cl)Cl)C1C(=O)OCc1cccc(Oc2ccccc2)c1 (stereo not shown) [Permethrin]
- Cholesterol-free [1, 3]: 1.352
- Complete ([1]; NCI-H292 cells, complete media): 0.9496
- Difference [1, 26]: −0.40
- Cholesterol-free media + simvastatin (0.04 μM) [2, 24]: 1.233
- Complete Media [2, 25]: 0.8994
- Difference [2, 27]: −0.33

Compound: C/C=C(/C(=C/C)c1ccc(O)cc1)c1ccc(O)cc1 [Dienestrol]
- Cholesterol-free [1, 16]: 0.6505
- Complete [1, 17]: 1.078
- Difference [1, 18]: 0.43
- Cholesterol-free media + simvastatin (0.04 μM) [2, 5]: 0.8618
- Complete Media [2, 6]: 0.9909
- Difference [2, 7]: 0.13

Compound: Oritavancin (diphosphate)
- Difference [1, 21]: −0.64
- Cholesterol-free [1, 19]: 1.626
- Complete [1, 20]: 0.9877
- Cholesterol-free media + simvastatin (0.04 μM) [2, 8]: 1.021
- Complete Media ([2]; drug in complete media): 0.8102
- Difference [2, 27]: −0.21

Compound: C[C@H](O)[C@H](O)[C@H]1CNc2nc(N)[nH]c(=O)c2N1 [Tetrahydrobiopterin]
- Difference [1, 10]: −0.10
- Cholesterol-free [1, 11]: 0.9498
- Complete [1, 12]: 0.8545
- Cholesterol-free media + simvastatin (0.04 μM) [2, 24]: 1.389
- Complete Media [2, 25]: 1.025
- Difference [2, 9]: −0.36

Compound: CN1CCC[C@@H]1Cc1c[nH]c2ccc(CCS(=O)(=O)c3ccccc3)cc12 [Eletriptan (hydrobromide)]
- Cholesterol-free [1, 3]: 1.406
- Complete ([1]; NCI-H292 cells, complete media): 1.08
- Difference [1, 4]: −0.33
- Cholesterol-free media + simvastatin (0.04 μM) [2, 24]: 1.33
- Complete Media [2, 25]: 0.9128
- Difference [2, 9]: −0.42

Compound: Cc1ncc([N+](=O)[O-])n1CC(O)CCl (stereo not shown) [Ornidazole]
- Cholesterol-free [1, 16]: 0.6543
- Complete [1, 17]: 1.082
- Difference [1, 18]: 0.43
- Cholesterol-free media + simvastatin (0.04 μM) [2, 8]: 1.385
- Complete Media ([2]; drug in complete media): 1.209
- Difference [2, 9]: −0.18

Compound: CC(C)CN(C[C@@H](OP(=O)(O)O)[C@H](Cc1ccccc1)NC(=O)O[C@H]1CCOC1)S(=O)(=O)c1ccc(N)cc1 [Fosamprenavir (Calcium Salt)]
- Difference [1, 10]: −0.11
- Cholesterol-free [1, 11]: 1.061
- Complete [1, 12]: 0.9495
- Cholesterol-free media + simvastatin (0.04 μM) [2, 5]: 0.8511
- Complete Media [2, 6]: 0.8779
- Difference [2, 7]: 0.03

Compound: Teprenone
- Cholesterol-free [1, 3]: 1.353
- Difference [1, 26]: −0.31
- Cholesterol-free media + simvastatin (0.04 μM) [2, 13]: 1.117
- Complete Media [2, 14]: 0.9777
- Difference [2, 27]: −0.14

Compound: COP(=S)(OC)Oc1ccc([N+](=O)[O-])c(C)c1 [Fenitrothion]
- Difference [1, 21]: −0.22
- Cholesterol-free [1, 3]: 0.8622
- Complete ([1]; NCI-H292 cells, complete media): 0.6445
- Cholesterol-free media + simvastatin (0.04 μM) [2, 13]: 1.585
- Complete Media [2, 14]: 1.426
- Difference [2, 27]: −0.16

Compound: COC(=O)/C=C/C(=O)OC [Dimethyl fumarate]
- Difference [1, 10]: −0.13
- Cholesterol-free [1, 11]: 0.8617
- Complete [1, 12]: 0.7326
- Cholesterol-free media + simvastatin (0.04 μM) [2, 13]: 0.991
- Complete Media [2, 14]: 0.9095
- Difference [2, 9]: −0.08
